Biological target: T1, staphylokinase (Staphylococcus aureus, UniProt P68801)
T1 construct: purchased Cedarlane Labs
Test: Plasminogen assay with staphylokinase as activator of plasminogen
Format: biochemical
Settings: staphylokinase 2 µg/ml; compared to untreated control
Method: Supernatant of an overnight culture of the GAS strain A614 was used as this strain secretes a cluster 2a type streptokinase. 75 µl of the culture supernatant was added to the wells of a 96well plate followed by 69 µl PBS, 5 µl S-2251 (10 mM stock solution, chromogenic substrate for the detection of plasmin, Chromogenix) and 1 µl plasminogen (1 mg/ml stock solution, Biopur or Sigma). 1 µl of each myxobacterial extract or each myxobacterial compound (dissolved in methanol, 1 mM) was added to test possible inhibition of plasminogen activation. The assay was run at 37 °C. The absorption was measured at the beginning of the reaction and then every hour at 405 nm after 3 sec of shaking on a Tecan Sunrise ELISA Reader using Magellan software. The reaction was finished when untreated samples had reached an OD405nm of about 1.
The assay was conducted as described above using staphylokinase (Cedarlane Labs) as an activator of plasminogen (staphylokinase final concentration 2 µg/ml per well in 75 µl of PBS. Stocks of LA and PA were prepared in methanol and then diluted in PBS. The untreated control received the same amount of methanol diluted in PBS as in case of treatment with PA or LA. Each experiment was repeated three times.

T1 sequence (P68801 28-163): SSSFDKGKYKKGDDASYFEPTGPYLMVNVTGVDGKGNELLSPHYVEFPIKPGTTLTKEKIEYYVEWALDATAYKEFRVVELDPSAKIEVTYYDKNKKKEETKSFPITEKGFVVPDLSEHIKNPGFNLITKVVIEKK

SMILES | inhibition of staphylokinase-mediated plasminogen activation
CCCCC/C=C\C/C=C\CCCCCCCC(=O)O [LA, linoleic acid] | not inhibited
CCCCCC/C=C\CCCCCCCC(=O)O [PA, palmitoleic acid] | not inhibited

— article PMC5603603, “Linoleic and palmitoleic acid block streptokinase-mediated plasminogen activation and reduce severity of invasive group A streptococcal infection” (Scientific Reports, 2017)
